From the supplement of paper PMC10307832

Legend:
Test in all cases: relative viability (nuclei count vs DMSO), 5 days (fraction); higher = more cells survive
A549 = test system: A549
Summary of the method: (§1)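 Cells from lung cancer lines were seeded into 1536-well plates and, one day later, dosed by pin tool. Treatments were either a single drug or a fixed dose of an anchor drug with five library-drug doses (not always all listed) in √10 steps. After 5 days, nuclei were stained in a one-step fixation (final 0.05% Triton X-100, 1% formaldehyde, 1 ug/ml Hoechst) and counted on 4× images, and relative viability is the treated-to-vehicle nuclei ratio, as the median of duplicate plates.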

LK-2 = test system: LK-2
Summary of the method: as §1

Calu-6 = test system: Calu-6
Summary of the method: as §1

NCI-H1703 = test system: NCI-H1703
Summary of the method: as §1

NCI-H1299 = test system: NCI-H1299
Summary of the method: as §1

NCI-H1734 = test system: NCI-H1734
Summary of the method: as §1

CAL-12T = test system: CAL-12T
Summary of the method: as §1

A-427 = test system: A-427
Summary of the method: as §1

NCI-H1650 = test system: NCI-H1650
Summary of the method: as §1

NCI-H2009 = test system: NCI-H2009
Summary of the method: as §1

UMC-11 = test system: UMC-11
Summary of the method: as §1

EBC-1 = test system: EBC-1
Summary of the method: as §1

IA-LM = test system: IA-LM
Summary of the method: as §1

COc1cc2nccc(Oc3ccc(NC(=O)Nc4cc(C)on4)c(Cl)c3)c2cc1OC [Tivozanib] + CS(=O)(=O)N1CCN(Cc2cc3nc(-c4cccc5[nH]ncc45)nc(N4CCOCC4)c3s2)CC1 [Pictilisib] (partner 1 µM)
relative viability (A549; first compound 0.005 µM): 0.49 | relative viability (A549; first compound 0.01581 µM): 0.456 | relative viability (A549; first compound 0.05 µM): 0.65 | relative viability (A549; first compound 0.1581 µM): 0.451 | relative viability (A549; first compound 0.5 µM): 0.571 | relative viability (LK-2; first compound 0.005 µM): 0.574 | relative viability (LK-2; first compound 0.01581 µM): 0.472 | relative viability (LK-2; first compound 0.05 µM): 0.6 | relative viability (LK-2; first compound 0.1581 µM): 0.459 | relative viability (LK-2; first compound 0.5 µM): 0.909 | relative viability (Calu-6; first compound 0.005 µM): 0.969 | relative viability (Calu-6; first compound 0.01581 µM): 0.979 | relative viability (Calu-6; first compound 0.05 µM): 0.842 | relative viability (Calu-6; first compound 0.1581 µM): 0.798 | relative viability (Calu-6; first compound 0.5 µM): 0.823 | relative viability (NCI-H1703; first compound 0.005 µM): 0.161 | relative viability (NCI-H1703; first compound 0.01581 µM): 0.236 | relative viability (NCI-H1703; first compound 0.05 µM): 0.253 | relative viability (NCI-H1703; first compound 0.1581 µM): 0.181 | relative viability (NCI-H1703; first compound 0.5 µM): 0.213 | relative viability (NCI-H1299; first compound 0.005 µM): 0.687 | relative viability (NCI-H1299; first compound 0.01581 µM): 0.62 | relative viability (NCI-H1299; first compound 0.05 µM): 0.797 | relative viability (NCI-H1299; first compound 0.1581 µM): 0.789 | relative viability (NCI-H1299; first compound 0.5 µM): 0.615 | relative viability (NCI-H1734; first compound 0.005 µM): 0.45 | relative viability (NCI-H1734; first compound 0.01581 µM): 0.443 | relative viability (NCI-H1734; first compound 0.05 µM): 0.456 | relative viability (NCI-H1734; first compound 0.1581 µM): 0.359 | relative viability (NCI-H1734; first compound 0.5 µM): 0.442 | relative viability (CAL-12T; first compound 0.005 µM): 0.212 | relative viability (CAL-12T; first compound 0.01581 µM): 0.445 | relative viability (CAL-12T; first compound 0.05 µM): 0.608 | relative viability (CAL-12T; first compound 0.5 µM): 0.404 | relative viability (A-427; first compound 0.005 µM): 0.656 | relative viability (A-427; first compound 0.01581 µM): 0.746 | relative viability (A-427; first compound 0.05 µM): 0.705 | relative viability (A-427; first compound 0.1581 µM): 0.511 | relative viability (A-427; first compound 0.5 µM): 0.71 | relative viability (NCI-H1650; first compound 0.005 µM): 0.561 | relative viability (NCI-H1650; first compound 0.01581 µM): 0.594 | relative viability (NCI-H1650; first compound 0.05 µM): 0.621 | relative viability (NCI-H1650; first compound 0.1581 µM): 0.558 | relative viability (NCI-H1650; first compound 0.5 µM): 0.498 | relative viability (NCI-H2009; first compound 0.005 µM): 0.811 | relative viability (NCI-H2009; first compound 0.01581 µM): 0.776 | relative viability (NCI-H2009; first compound 0.05 µM): 0.833 | relative viability (NCI-H2009; first compound 0.1581 µM): 0.633 | relative viability (NCI-H2009; first compound 0.5 µM): 0.663 | relative viability (UMC-11; first compound 0.005 µM): 0.793 | relative viability (UMC-11; first compound 0.01581 µM): 0.725 | relative viability (UMC-11; first compound 0.05 µM): 0.712 | relative viability (UMC-11; first compound 0.5 µM): 0.653 | relative viability (EBC-1; first compound 0.005 µM): 0.367 | relative viability (EBC-1; first compound 0.01581 µM): 0.362 | relative viability (EBC-1; first compound 0.05 µM): 0.378 | relative viability (EBC-1; first compound 0.1581 µM): 0.25 | relative viability (EBC-1; first compound 0.5 µM): 0.401 | relative viability (IA-LM; first compound 0.005 µM): 0.308 | relative viability (IA-LM; first compound 0.01581 µM): 0.366 | relative viability (IA-LM; first compound 0.05 µM): 0.321 | relative viability (IA-LM; first compound 0.1581 µM): 0.316 | relative viability (IA-LM; first compound 0.5 µM): 0.574

CC(=O)O[C@@]12CO[C@@H]1C[C@H](O)[C@@]1(C)C(=O)[C@H](O)C3=C(C)[C@@H](OC(=O)[C@H](O)[C@@H](NC(=O)OC(C)(C)C)c4ccccc4)C[C@@](O)([C@@H](OC(=O)c4ccccc4)[C@H]21)C3(C)C [Docetaxel] + CS(=O)(=O)CCNCc1ccc(-c2ccc3ncnc(Nc4ccc(OCc5cccc(F)c5)c(Cl)c4)c3c2)o1 [Lapatinib] (partner 2 µM)
relative viability (A549; first compound 0.0002 µM): 0.972 | relative viability (A549; first compound 0.002 µM): 0.0898 | relative viability (A549; first compound 0.006325 µM): 0.0769 | relative viability (A549; first compound 0.02 µM): 0.0547 | relative viability (LK-2; first compound 0.0002 µM): 0.843 | relative viability (LK-2; first compound 0.000632 µM): 0.662 | relative viability (LK-2; first compound 0.002 µM): 0.244 | relative viability (LK-2; first compound 0.006325 µM): 0.248 | relative viability (LK-2; first compound 0.02 µM): 0.148 | relative viability (Calu-6; first compound 0.0002 µM): 0.982 | relative viability (Calu-6; first compound 0.000632 µM): 0.879 | relative viability (Calu-6; first compound 0.002 µM): 0.286 | relative viability (Calu-6; first compound 0.006325 µM): 0.125 | relative viability (Calu-6; first compound 0.02 µM): 0.112 | relative viability (NCI-H1703; first compound 0.0002 µM): 1.1 | relative viability (NCI-H1703; first compound 0.000632 µM): 0.664 | relative viability (NCI-H1703; first compound 0.002 µM): 0.219 | relative viability (NCI-H1703; first compound 0.006325 µM): 0.157 | relative viability (NCI-H1703; first compound 0.02 µM): 0.148 | relative viability (NCI-H1299; first compound 0.0002 µM): 0.935 | relative viability (NCI-H1299; first compound 0.000632 µM): 0.968 | relative viability (NCI-H1299; first compound 0.002 µM): 0.704 | relative viability (NCI-H1299; first compound 0.006325 µM): 0.467 | relative viability (NCI-H1299; first compound 0.02 µM): 0.298 | relative viability (NCI-H1734; first compound 0.0002 µM): 0.986 | relative viability (NCI-H1734; first compound 0.000632 µM): 0.549 | relative viability (NCI-H1734; first compound 0.002 µM): 0.429 | relative viability (NCI-H1734; first compound 0.006325 µM): 0.322 | relative viability (NCI-H1734; first compound 0.02 µM): 0.221 | relative viability (CAL-12T; first compound 0.0002 µM): 0.757 | relative viability (CAL-12T; first compound 0.000632 µM): 0.496 | relative viability (CAL-12T; first compound 0.002 µM): 0.277 | relative viability (CAL-12T; first compound 0.006325 µM): 0.25 | relative viability (A-427; first compound 0.0002 µM): 0.947 | relative viability (A-427; first compound 0.000632 µM): 1.02 | relative viability (A-427; first compound 0.002 µM): 0.961 | relative viability (A-427; first compound 0.006325 µM): 0.211 | relative viability (A-427; first compound 0.02 µM): 0.162 | relative viability (NCI-H1650; first compound 0.0002 µM): 0.721 | relative viability (NCI-H1650; first compound 0.000632 µM): 0.322 | relative viability (NCI-H1650; first compound 0.006325 µM): 0.153 | relative viability (NCI-H1650; first compound 0.02 µM): 0.152 | relative viability (NCI-H2009; first compound 0.0002 µM): 0.965 | relative viability (NCI-H2009; first compound 0.000632 µM): 0.922 | relative viability (NCI-H2009; first compound 0.002 µM): 0.412 | relative viability (NCI-H2009; first compound 0.006325 µM): 0.195 | relative viability (NCI-H2009; first compound 0.02 µM): 0.12 | relative viability (UMC-11; first compound 0.0002 µM): 0.8 | relative viability (UMC-11; first compound 0.000632 µM): 0.831 | relative viability (UMC-11; first compound 0.002 µM): 0.249 | relative viability (UMC-11; first compound 0.006325 µM): 0.26 | relative viability (UMC-11; first compound 0.02 µM): 0.148 | relative viability (EBC-1; first compound 0.0002 µM): 0.201 | relative viability (EBC-1; first compound 0.000632 µM): 0.227 | relative viability (EBC-1; first compound 0.002 µM): 0.228 | relative viability (EBC-1; first compound 0.006325 µM): 0.197 | relative viability (EBC-1; first compound 0.02 µM): 0.195 | relative viability (IA-LM; first compound 0.0002 µM): 0.46 | relative viability (IA-LM; first compound 0.000632 µM): 0.153 | relative viability (IA-LM; first compound 0.002 µM): 0.0797 | relative viability (IA-LM; first compound 0.006325 µM): 0.069 | relative viability (IA-LM; first compound 0.02 µM): 0.068
